Calls of active or inactive are those of the source. No cut-off for these calls is given here. Bounds are passed on as bounds.

The nature of data set [1]: Prodrug conversion in human plasma assessed as 7(R)-(2-((R,E)-4,4-difluoro-3-hydroxy-4-phenyl)but-1-en-1-yl)-5-oxopyrrolidin-1-yl)heptanoic acid release by measuring half-life. In kind it is ADME, cell-free.
The nature of data set [2]: Prodrug conversion in mouse gut assessed as 7(R)-(2-((R,E)-4,4-difluoro-3-hydroxy-4-phenyl)but-1-en-1-yl)-5-oxopyrrolidin-1-yl)heptanoic acid formation by measuring half-life at 100 uM. In kind it is ADME, tissue-based.
Data set [3] can be described thus: Elimination half-life in rat. In kind it is ADME. The settings on record: in vivo, read-out: beta t1/2.
Data set [4] is described as follows: Prodrug conversion in mouse blood assessed as concentration of 7(R)-(2-((R,E)-4,4-difluoro-3-hydroxy-4-phenyl)but-1-en-1-yl)-5-oxopyrrolidin-1-yl)heptanoic acid administered as rectal dose and measured after 1 hr. In kind it is ADME, tissue-based. To be noted: other, route rec.
The nature of data set [5]: Prodrug conversion in mouse blood assessed as 7(R)-(2-((R,E)-4,4-difluoro-3-hydroxy-4-phenyl)but-1-en-1-yl)-5-oxopyrrolidin-1-yl)heptanoic acid formation administered orally with 1 mg/kg equivalent dose of active drug and measured after 0.5 hrs by LC/MS/MS analysis. In kind it is ADME, organism-based. The settings on record: in vivo, po.
The nature of data set [6]: Prodrug conversion in mouse blood assessed as 7(R)-(2-((R,E)-4,4-difluoro-3-hydroxy-4-phenyl)but-1-en-1-yl)-5-oxopyrrolidin-1-yl)heptanoic acid formation administered orally with 1 mg/kg equivalent dose of active drug and measured for 1 to 4 hrs by LC/MS/MS analysis. It counts as ADME, organism-based. To be noted: in vivo, po, time 1-4 hrs.
A short description of data set [7]: Drug uptake in mouse blood administered as rectal dose and measured after 1 hrs. The settings on record: route rec, read-out: Ct. It counts as ADME, tissue-based.
Data set [8] in a line: Toxicity in rectal dosed mouse assessed as body weight loss administered for 8 days. In kind it is organism-based. To be noted: in vivo, other, 192 h, route rec, time 8 day.
Data set [9] has as its system Mus musculus. As to the kind of experiment: Anti-inflammatory activity in rectal dosed DSS-induced colitis mouse model assessed as change in disease activity index (DAI) treated as prodrug for 8 days. In kind it is functional, organism-based. The settings on record: route rec, time 8.0 day.
Data set [10] can be described thus: Prodrug conversion in blood of DSS-induced colitis mouse model assessed as 7(R)-(2-((R,E)-4,4-difluoro-3-hydroxy-4-phenyl)but-1-en-1-yl)-5-oxopyrrolidin-1-yl)heptanoic acid formation administered as rectal dose and measured after 4 days by LC/MS/MS analysis. In kind it is ADME, tissue-based. The settings on record: other, 96 h, route rec, time 4 day.
The subject of data set [11] is Mus musculus. As to the kind of experiment: Anti-inflammatory activity in rectal dosed DSS-induced colitis mouse model assessed as increase in colon length treated as prodrug for 8 days. In kind it is functional, organism-based. To be noted: route rec, time 8.0 day.
Data set [12] can be described thus: Prodrug conversion in mouse ileum assessed as 7(R)-(2-((R,E)-4,4-difluoro-3-hydroxy-4-phenyl)but-1-en-1-yl)-5-oxopyrrolidin-1-yl)heptanoic acid formation by measuring half-life. In kind it is ADME, tissue-based. To be noted: in vivo.
Data set [13] is described as follows: Stability of compound in PBS buffer at pH 7.2 at 200 ug/mL measured over 170 hrs. It counts as physicochemical. The settings on record: pH 7.2, 170 h, at 200 µg/mL.
A short description of data set [14]: Prodrug conversion in mouse colon assessed as 7(R)-(2-((R,E)-4,4-difluoro-3-hydroxy-4-phenyl)but-1-en-1-yl)-5-oxopyrrolidin-1-yl)heptanoic acid formation by measuring half-life. In kind it is ADME, tissue-based. The settings on record: in vivo.
The subject of data set [15] is Mus musculus. As to the kind of experiment: Anti-inflammatory activity in rectal dosed DSS-induced mouse model assessed as reduction in inflammatory cell infiltration treated as prodrug for 8 days. To be noted: route rec, time 8.0 day. It counts as functional, organism-based.
Data set [16] is described as follows: Prodrug release in PBS buffer at pH 2 assessed as release of 7(R)-(2-((R,E)-4,4-difluoro-3-hydroxy-4-phenyl)but-1-en-1-yl)-5-oxopyrrolidin-1-yl)heptanoic acid by measuring half-life. In kind it is ADME.
The test system of data set [17] is Mus musculus. As to the kind of experiment: Anti-inflammatory activity in rectal dosed DSS-induced mouse model assessed as reduction in epithelial cell damage treated as prodrug for 8 days. The settings on record: route rec, time 8.0 day. In kind it is functional, organism-based.
A short description of data set [18]: Stability of compound in PBS buffer at pH 9 at 200 ug/mL measured over 170 hrs. It counts as physicochemical. To be noted: pH 9, 170 h, at 200 µg/mL.
Data set [19] in a line: Prodrug conversion in mouse serum assessed as 7(R)-(2-((R,E)-4,4-difluoro-3-hydroxy-4-phenyl)but-1-en-1-yl)-5-oxopyrrolidin-1-yl)heptanoic acid release by measuring half-life. It counts as ADME, cell-free.
Data set [20] in a line: Prodrug conversion in blood of DSS-induced colitis mouse model assessed as 7(R)-(2-((R,E)-4,4-difluoro-3-hydroxy-4-phenyl)but-1-en-1-yl)-5-oxopyrrolidin-1-yl)heptanoic acid formation administered as rectal dose and measured after 7 days by LC/MS/MS analysis. It counts as ADME, tissue-based. To be noted: other, 168 h, route rec, time 7 day.

For `CCCC(O[C@H](/C=C/[C@H]1CCC(=O)N1CCCCCCC(=O)OCC)C(F)(F)c1ccccc1)OP(=O)(O)O` (stereo partly specified), the t1/2 in data set [1] is 12.7 h; in data set [2] it was under 0.083 h.
For the molecule `O=C1CC[C@H](/C=C/[C@@H](O)C(F)(F)c2ccccc2)N1CCCCCCc1nnn[nH]1`, the half-life in data set [3] is over 24 h.
With `O=C(O)CCCCCCN1C(=O)CC[C@@H]1/C=C/[C@@H](OC(OP(=O)(O)O)c1ccccc1)C(F)(F)c1ccccc1` (stereo partly specified), the Drug metabolism in [4] was 2.6 ng/mL; in data set [5], “metabolite_detected”; in data set [6], “metabolite_detected”.
For `CCOC(=O)CCCCCCN1C(=O)CC[C@@H]1/C=C/[C@@H](OC(OP(=O)(O)O)c1ccccc1)C(F)(F)c1ccccc1` (stereo partly specified), the t1/2 was determined as 45 h in data set [1] and 0.667 h in data set [2].
On to `O=C(O)CCCCCCN1C(=O)CC[C@@H]1/C=C/[C@@H](O)C(F)(F)c1ccccc1`, for which, in data set [3], the half-life is under 1 h. Also, the concentration at 1 h in [7] is 35.8 ng/mL. Besides, the Activity entry in data set [8] is “Non-toxic”.
`CCOC(=O)CCCCCCN1C(=O)CC[C@@H]1/C=C/[C@@H](OC(C)OP(=O)(O)O)C(F)(F)c1ccccc1` (stereo partly specified): the t1/2 in [1] was 10.4 h; in [2], under 0.083 h.
As to `O=C(O)CCCCCCN1C(=O)CC[C@@H]1/C=C/[C@@H](OCOP(=O)(O)O)C(F)(F)c1ccccc1`, the t1/2 in [1] was 1.5 h; in [12], 9 min; in data set [14], 0.333 h; in [16] it was ~ 300 hr; in data set [2], under 0.083 h; in data set [19], 3.3 h. In addition, the Drug metabolism was 5.4 ng/mL in data set [4]; “metabolite_detected” in data set [5]; 1.5 ng/mL in data set [10]; 1.5 ng/mL in [20]; “metabolite_detected” in data set [6]. Moreover, the Activity result with Mus musculus [9] was “Not active; Little Or No Change Observed”; in data set [8] it was “Non-toxic”. Moreover, the outcome in the data set with Mus musculus [11], in the data set with Mus musculus [15] and in the data set on Mus musculus [17] was Active. The Stability result in [13] and in data set [18] was “Stable” in each case.
